Laboratory results: US12692253B2, “Antimicrobial compounds and methods” (Curza Global, LLC, priority 2019, dated 2026)

How the values were obtained:
[1] = tested on: E. coli S30 extract (bacterial protein synthesis); assay: E. coli S30 extract coupled transcription-translation luciferase assay (inhibition of bacterial protein synthesis); format: biochemical; conditions: % inhibition @ 1 μM, read-out: S30 IC50 (μM/% inhib.)
Procedure, shortened: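 Luciferase luminescence quantified inhibition of protein synthesis relative to water controls, with no-DNA reactions giving background. Compounds in 2-fold serial dilution (8 levels) were incubated 1 hour at 37 °C with E. coli S30 extract, amino acids and pBESTluc plasmid, then chilled to stop.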

[2] = molecular target: Rabbit Reticulocyte Lysate (eukaryotic protein synthesis); assay: Rabbit reticulocyte lysate luciferase assay (inhibition of eukaryotic protein synthesis); format: biochemical; conditions: % inhibition @ 1 μM, read-out: Rabbit reticulocyte IC50 (μM/% inhib.)
Procedure, shortened: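 Percent inhibition calculated against water-only controls from luminescence; background set by lysate lacking RNA. Compounds, 8-point 2-fold titration, incubated 90 minutes at 30° C with nuclease-treated rabbit reticulocyte lysate programmed with luciferase control RNA plus complete amino acids.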

[3] = tested on: A. baumannn (Ab); assay: Broth microdilution minimum inhibitory concentration (MIC), CLSI; format: cell-based; conditions: A. baumannn; growth medium with sodium bicarbonate; read-out: Ab + bicarb MIC
Procedure, shortened: (§1)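 Modified CLSI method: CAMHB (± bicarbonate 6.25/25 mM or 0-50% human serum), 8-point two-fold series, triplicates, 5×10^4 CFU/well.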

[4] = tested on: E. coli (Ec); assay: as above; format: cell-based; conditions: Escherichia coli, growth medium with sodium bicarbonate, read-out: E. coli + bicarb MIC
Procedure, shortened: as §1

[5] = tested on: E. faecalis (Ef); assay: as above; format: cell-based; conditions: Enterococcus faecalis, growth medium with sodium bicarbonate, read-out: Ef + bicarb MIC
Procedure, shortened: as §1

[6] = tested on: P. aeruginosa (Pa); assay: as above; format: cell-based; conditions: Pseudomonas aeruginosa, growth medium with sodium bicarbonate, read-out: Pa MIC + bicarb
Procedure, shortened: as §1

[7] = tested on: S. aureus (Sa); assay: as above; format: cell-based; conditions: Staphylococcus aureus, growth medium with sodium bicarbonate, read-out: Sa + bicarb MIC
Procedure, shortened: as §1

Compound | IC50 [1] [µM] | IC50 [2] [µM] | MIC [3] [µg/mL] | MIC [4] [µg/mL] | MIC [5] [µg/mL] | MIC [6] [µg/mL] | MIC [7] [µg/mL]
CC(C)(N)C(=O)N1CCN(C(=O)Nc2ccn(-c3ccc(CCCN4C[C@@H]5[C@@H](N)[C@@H]5C4)cc3)c(=O)n2)CC1 [Compound 179] | ≥ 1 | ≥ 1 | > 32 | 8 to 32 | > 32 | > 32 | < 8
CC(C)(N)C(=O)N1CCN(C(=O)Nc2ccn(-c3ccc(CCCN4CCC5(CC4)CC(N)C5)cc3)c(=O)n2)CC1 [Compound 180] | ≥ 1 | ≥ 1 | > 32 | < 8 | > 32 | > 32 | 8 to 32
CC(COc1ccc(-n2ccc(NC(=O)N3CCN(C(=O)C(C)(C)N)CC3)nc2=O)cc1)N1CC2(CC(N)C2)C1 (stereo not shown) [Compound 181] | 0.5 to 1 | ≥ 1 | > 32 | < 8 | < 8 | > 32 | < 8
CC(C)(N)C(=O)N1CCN(C(=O)Nc2ccn(-c3ccc(C[C@H](N)C(=O)N4C[C@@H]5[C@@H](CN)[C@@H]5C4)cc3)c(=O)n2)CC1 [Compound 182] | ≥ 1 | ≥ 1 | > 32 | > 32 | > 32 | > 32 | > 32
CC(C)(N)C(=O)N1CCN(C(=O)Nc2ccn(-c3ccc(C[C@H](N)C(=O)N4CC5CC5(CN)C4)cc3)c(=O)n2)CC1 (stereo partly shown) [Compound 183] | ≥ 1 | ≥ 1 | > 32 | > 32 | > 32 | > 32 | > 32
CC(C)(N)C(=O)N1CCN(C(=O)Nc2ccn(-c3ccc(CCCN4CC5CC5(CN)C4)cc3)c(=O)n2)CC1 (stereo not shown) [Compound 184] | ≥ 1 | ≥ 1 | > 32 | < 8 | 8 to 32 | > 32 | < 8
CC(C)(N)C(=O)N1CCN(C(=O)Nc2ccn(-c3ccc(CCCN4C[C@@H]5[C@@H](CN)[C@@H]5C4)cc3)c(=O)n2)CC1 [Compound 185] | ≥ 1 | ≥ 1 | > 32 | < 8 | 8 to 32 | > 32 | < 8
CC(CN1C[C@@H]2[C@@H](CN)[C@@H]2C1)Oc1ccc(-n2ccc(NC(=O)N3CCN(C(=O)C(C)(C)N)CC3)nc2=O)cc1 (stereo partly shown) [Compound 186] | < 0.5 | ≥ 1 | 8 to 32 | < 8 | < 8 | > 32 | < 8
CC(C)(N)C(=O)N1CCN(C(=O)Nc2ccn(-c3ccc(OCCN4C[C@@H]5[C@@H](CN)[C@@H]5C4)cc3)c(=O)n2)CC1 [Compound 187] | < 0.5 | ≥ 1 | 8 to 32 | < 8 | < 8 | 8 to 32 | < 8
CC(COc1ccc(-n2ccc(NC(=O)N3CCN(C(=O)C(C)(C)N)CC3)nc2=O)cc1)N1C[C@@H]2[C@@H](CN)[C@@H]2C1 (stereo partly shown) [Compound 188] | < 0.5 | ≥ 1 | 8 to 32 | < 8 | < 8 | 8 to 32 | < 8
CC(COc1ccc(-n2ccc(NC(=O)N3CCN(C(=O)C(C)(C)N)CC3)nc2=O)cc1)N1CC2CC2(CN)C1 (stereo not shown) [Compound 189] | < 0.5 | ≥ 1 | > 32 | < 8 | < 8 | > 32 | < 8
CC(C)(N)C(=O)N1CCN(C(=O)Nc2ccn(-c3ccc(CNC[C@@H]4[C@H]5CNC[C@@H]45)cc3)c(=O)n2)CC1 [Compound 190] | < 0.5 | ≥ 1 | > 32 | < 8 | 8 to 32 | > 32 | < 8
CC(Cc1ccc(-n2ccc(NC(=O)N3CCN(C(=O)C(C)(C)N)CC3)nc2=O)cc1)N(C)C1CC2(CC(N)C2)C1 (stereo not shown) [Compound 191] | ≥ 1 | ≥ 1 | 8 to 32 | < 8 | < 8 | 8 to 32 | < 8
CC(Cc1ccc(-n2ccc(NC(=O)N3CCN(C(=O)C(C)(C)N)CC3)nc2=O)cc1F)NC1CC2(CC(N)C2)C1 (stereo not shown) [Compound 192] | ≥ 1 | ≥ 1 | > 32 | < 8 | < 8 | > 32 | < 8
CN(CCc1ccc(-n2ccc(NC(=O)N3CCN(C(=O)C(C)(C)N)CC3)nc2=O)cc1)C1CC2(CC(N)C2)C1 (stereo not shown) [Compound 193] | ≥ 1 | ≥ 1 | > 32 | < 8 | 8 to 32 | > 32 | < 8
CC(Cc1ccc(-n2ccc(NC(=O)N3CCN(C(=O)C(C)(C)N)CC3)nc2=O)cc1)N(CC1CC1)C1CC2(CC(N)C2)C1 (stereo not shown) [Compound 194] | 0.5 to 1 | ≥ 1 | 8 to 32 | < 8 | < 8 | > 32 | < 8
CC(Cc1ccc(-n2ccc(NC(=O)N3CCN(C(=O)C(C)(C)N)CC3)nc2=O)cc1)N(CC(F)(F)F)C1CC2(CC(N)C2)C1 (stereo not shown) [Compound 195] | ≥ 1 | ≥ 1 | > 32 | > 32 | > 32 | > 32 | 8 to 32
CC(C)N(C(C)Cc1ccc(-n2ccc(NC(=O)N3CCN(C(=O)C(C)(C)N)CC3)nc2=O)cc1)C1CC2(CC(N)C2)C1 (stereo not shown) [Compound 196] | ≥ 1 | ≥ 1 | > 32 | > 32 | > 32 | > 32 | > 32
CC(Cc1ccc(-n2ccc(NC(=O)N3CCN(C(=O)C(C)(C)N)CC3)nc2=O)cc1)N(CCO)C1CC2(CC(N)C2)C1 (stereo not shown) [Compound 197] | ≥ 1 | ≥ 1 | > 32 | < 8 | 8 to 32 | > 32 | < 8
CCN(C(C)Cc1ccc(-n2ccc(NC(=O)N3CCN(C(=O)C(C)(C)N)CC3)nc2=O)cc1)C12CC(N)(C1)C2 (stereo not shown) [Compound 198] | ≥ 1 | ≥ 1 | > 32 | 8 to 32 | > 32 | > 32 | 8 to 32
CC(Cc1ccc(-n2ccc(NC(=O)N3CCN(C(=O)C(C)(C)N)CC3)nc2=O)cc1)N(C)C12CC(N)(C1)C2 (stereo not shown) [Compound 199] | ≥ 1 | ≥ 1 | > 32 | 8 to 32 | > 32 | > 32 | 8 to 32
CC(Cc1ccc(-n2ccc(NC(=O)N3CCN(C(=O)C(C)(C)N)CC3)nc2=O)cc1)N(C)C12CC(CN)(C1)C2 (stereo not shown) [Compound 200] | ≥ 1 | ≥ 1 | > 32 | < 8 | > 32 | > 32 | < 8
CCN(C(C)Cc1ccc(-n2ccc(NC(=O)N3CCN(C(=O)C(C)(C)N)CC3)nc2=O)cc1)C12CC(CN)(C1)C2 (stereo not shown) [Compound 201] | < 0.5 | ≥ 1 | > 32 | < 8 | < 8 | > 32 | < 8
CC(Cc1ccc(-n2ccc(NC(=O)N3CCN(C(=O)C(C)(C)N)CC3)nc2=O)cc1)NC12CC(N)(C1)C2 (stereo not shown) [Compound 202] | ≥ 1 | ≥ 1 | 8 to 32 | > 32 | > 32 | > 32 | > 32
CC(Cc1ccc(-n2ccc(NC(=O)N3CCN(C(=O)C(C)(C)N)CC3)nc2=O)cc1)NC12CC(CN)(C1)C2 (stereo not shown) [Compound 203] | ≥ 1 | ≥ 1 | > 32 | 8 to 32 | > 32 | > 32 | 8 to 32
CC(Cc1ccc(-n2ccc(NC(=O)N3CCN(C(=O)C(C)(C)N)CC3)nc2=O)cc1)NCC1[C@H]2CNC[C@@H]12 (stereo partly shown) [Compound 204] | ≥ 1 | ≥ 1 | > 32 | < 8 | > 32 | > 32 | < 8
CC(Cc1ccc(-n2ccc(NC(=O)N3CCN(C(=O)C(C)(C)N)CC3)nc2=O)cc1)N1C[C@@H]2[C@H](C1)[C@H]2C(C)(C)N (stereo partly shown) [Compound 205] | ≥ 1 | ≥ 1 | > 32 | 8 to 32 | > 32 | > 32 | 8 to 32
CC(C)(N)C(=O)N1CCN(C(=O)Nc2ccn(-c3ccc(CN4C[C@@H]5C(C(C)(C)N)[C@@H]5C4)cc3)c(=O)n2)CC1 (stereo partly shown) [Compound 206] | < 0.5 | ≥ 1 | > 32 | < 8 | 8 to 32 | > 32 | < 8
